Data taken from PubChem BioAssay (NCI).
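Five compound concentrations were applied to cells in 96-well plates for 48 hours; endpoints were derived by simple linear interpolation of the resulting dose-response curve. The concentration for full growth arrest is given as TGI.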

Tested on: P388 leukemia
Test: NCI tumour cell line growth inhibition, 48 h

O=C1C(=O)c2ccccc2C(O)=C1CC=C(Cl)Cl
TGI: 54.9 µM
